# Results taken from patent US20050014811A1, “Substituted benzimidazole compounds and their use for the treatment of cancer” (Aventis Pharma S.A., priority 2001, published 2005).
# Biological target: CDK4/CyclinD1 (Homo sapiens, UniProt P11802)
# Test: CDK4/CyclinD1 Flashplate assay, 96-well format, biotinylated-Rb peptide substrate
# Assay type: biochemical
# Method: This is a CDK4/CyclinD1 kinase assay in a 96-well Streptavidin-coated Flashplate with a biotinylated-Rb peptide substrate.
# Each point is tested in duplicate
# Biotinylated-Rb: Biotin-[…]
# • 1. Prepare substrate: 1 mg/ml solution made fresh in PBS. • 2. Add 100 μg per well to the Flashplate. • 3. Incubate for 2 hours at RT. • 4. From 10 mM inhibitor stocks in DMSO, make 1 mM, 300 μM, 100 μM, 30 μM and 10 μM series of dilution in DMSO. • 5. Wash the Flashplate 3 times with 300 μl PBS to remove unbound peptide substrate. • 6. Add the CDK4/CyclinD1 kinase: 70 ng per well, in a volume of 90 μl in kinase buffer (except for “no enzyme” control wells). • 7. Add 1 μl^1 per well of inhibitor to test 10 μM, 3 μM, 1 μM, 0.3 μM and 0.1 μM in final concentration per 100 μl in each well. • 8. Shake gently the Flashplate 1 minute. • 9. Incubate 30 minutes on wet ice. • 10. Initiate the reaction with 10 μl kinase buffer containing 1 μM final cold ATP and 1 μCi final ^33P-ATP per well. • 11. Shake gently the Flashplate 1 minute. • 12. Incubate 45 minutes at RT (no shaking). • 13. Wash the Flashplate 3 times with 300 μl PBS • 14. Count to detect the incorporation of ^33P-ATP by the kinase to the Rb phosphorylation site.
# Chain of CDK4/CyclinD1 (P11802 whole entry, species assumed): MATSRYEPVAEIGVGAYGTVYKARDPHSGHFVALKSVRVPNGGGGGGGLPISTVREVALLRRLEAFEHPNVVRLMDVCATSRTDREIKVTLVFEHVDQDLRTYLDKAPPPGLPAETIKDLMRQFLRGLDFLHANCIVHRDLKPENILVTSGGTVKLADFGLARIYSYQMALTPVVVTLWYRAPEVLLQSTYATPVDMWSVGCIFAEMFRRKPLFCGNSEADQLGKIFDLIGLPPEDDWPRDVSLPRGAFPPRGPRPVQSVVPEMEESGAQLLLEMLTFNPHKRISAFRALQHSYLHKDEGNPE
# Chain of CDK4/CyclinD1 (P24385 whole entry partner, species assumed): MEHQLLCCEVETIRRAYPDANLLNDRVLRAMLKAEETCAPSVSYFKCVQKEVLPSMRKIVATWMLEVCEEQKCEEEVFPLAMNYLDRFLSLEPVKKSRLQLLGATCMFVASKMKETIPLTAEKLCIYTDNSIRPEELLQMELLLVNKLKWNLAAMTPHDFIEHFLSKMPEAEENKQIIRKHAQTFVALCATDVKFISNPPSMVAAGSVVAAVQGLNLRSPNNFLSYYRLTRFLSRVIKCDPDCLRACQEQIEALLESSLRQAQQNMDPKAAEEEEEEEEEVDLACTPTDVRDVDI
inhibition at 10 µM [%],IC50 [nM],Molecule,also measured
103,,"COCC(O)CNC(=O)Nc1nc2ccc(OS(=O)(=O)c3ccc(NCC(O)COC)cc3)cc2[nH]1 (stereo not drawn) [Example 80-m, 4-(2-Hydroxy-3-methoxy-propylamino)-benzenesulfonic acid 2-[3-(2-hydroxy-3-methoxy-propyl)-ureido]-3H-benzoimidazol-5-yl ester]",
,1300,"COC(=O)Nc1nc2cc(OS(=O)(=O)c3ccccc3F)ccc2[nH]1 [Example 62-d, 2-Fluoro-benzenesulfonic acid 2-methoxycarbonylamino-1H-benzoimidazol-5-yl ester]",
54,,"COCCNC(=O)Nc1nc2cc(OS(=O)(=O)c3ccc(OCc4ccccc4)cc3)ccc2[nH]1 [Example 78-o, 4-Benzyloxy-benzenesulfonic acid 2-[3-(2-methoxy-ethyl)-ureido]-1H-benzoimidazol-5-yl ester]",
97,,"COCCNc1ccc(S(=O)(=O)Oc2ccc3[nH]c(NC(=O)OC)nc3c2)cc1 [Example 68-a, 4-(2-methoxy-ethylamino)-benzenesulfonic acid 2-methoxycarbonylamino-1H-benzoimidazol-5-yl ester]",
,100,COCCNc1ccc(S(=O)(=O)Oc2ccc3[nH]c(NC(=O)NCc4ccccn4)nc3c2)cc1 [Example 78-f],
,600,"O=C(NCCCn1ccnc1)Nc1nc2cc(OS(=O)(=O)c3ccc(NC4CCCC4)cc3)ccc2[nH]1 [Example 58-p, 4-Cyclopentylamino-benzenesulfonic acid 2-[3-(3-imidazol-1-yl-propyl)-ureido]-1H-benzoimidazol-5-yl ester]",
91,,"COC(=O)Nc1nc2ccc(OS(=O)(=O)c3ccc(NCC4CC4)cc3)cc2[nH]1 [Example 67, 4-(cyclopropylmethyl-amino)-benzene sulfonic acid 2-methoxycarbonylamino-1H-benzoimidazol-5-yl ester]",
97,,"CC(CO)Nc1ccc(S(=O)(=O)Oc2ccc3[nH]c(NC(=O)NCCN4CCOCC4)nc3c2)cc1 (stereo not drawn) [Example 78-i, 4-(2-Hydroxy-1-methyl-ethylamino)-benzenesulfonic acid 2-[3-(2-morpholin-4-yl-ethyl)-ureido]-1H-benzoimidazol-5-yl ester]",
,500,"O=C(Nc1nc2cc(OS(=O)(=O)c3ccc(NCc4cccnc4)cc3)ccc2[nH]1)C1CC1 [Example 60-m, 4-[(Pyridin-3-yl-methyl)-amino]-benzenesulfonic acid 2-(cyclopropanecarbonyl-amino)-1H-benzoimidazol-5-yl ester]",
,700,"COC(=O)Nc1nc2cc(OS(=O)(=O)c3ccc(F)cc3F)ccc2[nH]1 [Example 62-p, 2,4-Difluoro-benzenesulfonic acid 2-methoxycarbonylamino-1H-benzoimidazol-5-yl ester]",
,2500,"NC(=O)[C@H]1CCCN1c1ccc(S(=O)(=O)Oc2ccc3[nH]c(NC(=O)C4CC4)nc3c2)cc1 [Example 60-y, 4-(2R-Carbamoyl-pyrrolidin-1-yl)-benzenesulfonic acid 2-(cyclopropanecarbonyl-amino)-1H-benzoimidazol-5-yl ester]",
,1500,"COC(=O)Nc1nc2ccc(OS(=O)(=O)c3ccc(OCc4ccccc4)cc3)cc2[nH]1 [Example 63, 4-benzyloxy-benzenesulfonic acid 2-methoxycarbonylamino-1H-benzoimidazol-5-yl ester]",
100,,"O=C(NCCF)Nc1nc2ccc(OS(=O)(=O)c3ccc(NCCF)cc3)cc2[nH]1 [Example 80-c, 4-(2-Fluoro-ethylamino)-benzenesulfonic acid 2-[3-(2-fluoro-ethyl)-ureido]-3H-benzoimidazol-5-yl ester]",
90,,"CCNC(=O)Nc1nc2cc(OS(=O)(=O)c3ccc(NCCOC)cc3)ccc2[nH]1 [Example 78-h, 4-(2-Methoxy-ethylamino)-benzenesulfonic acid 2-[3-(2-ethyl)-ureido]-1H-benzoimidazol-5-yl ester]",
,1600,"O=C(Nc1nc2cc(OS(=O)(=O)c3ccc(NCCOCCO)cc3)ccc2[nH]1)C1CC1 [Example 60-ai, 4-[2-(2-Hydroxy-ethoxy)-ethylamino]-benzenesulfonic acid 2-(cyclopropanecarbonyl-amino)-1H-benzoimidazol-5-yl ester]",
78,,"COC(=O)Nc1nc2cc(OS(=O)(=O)c3ccc(NC(C)CO)cc3)ccc2[nH]1 (stereo not drawn) [Example 68-b, 4-(2-hydroxy-1-methyl-ethylamino)-benzenesulfonic acid 2-methoxycarbonylamino-1H-benzoimidazol-5-yl ester]",

inhibition at 10 µM [%],IC50 [nM],Molecule,also measured
,1200,"COC(=O)Nc1nc2cc(OS(=O)(=O)c3cccc(C(F)(F)F)c3)ccc2[nH]1 [Example 62-m, 3-Trifluoromethyl-benzenesulfonic acid 2-methoxycarbonylamino-1H-benzoimidazol-5-yl ester]",
,2000,"CC(C)N(CCNc1ccc(S(=O)(=O)Oc2ccc3[nH]c(NC(=O)C4CC4)nc3c2)cc1)C(C)C [Example 60-t, 4-(2-Diisopropylamino-ethylamino)-benzenesulfonic acid 2-(cyclopropanecarbonyl-amino)-1H-benzoimidazol-5-yl ester]",
,3900,"O=C(Nc1nc2cc(OS(=O)(=O)c3ccc(NCCN4CCNCC4)cc3)ccc2[nH]1)C1CC1 [Example 60-aa, 4-(2-Piperazin-1-yl-ethylamino)-benzene-sulfonic acid 2-(cyclopropanecarbonyl-amino)-1H-benzoimidazol-5-yl ester]",
,600,"CC[C@@H](CO)Nc1ccc(S(=O)(=O)Oc2ccc3[nH]c(NC(=O)C4CC4)nc3c2)cc1 [Example 60-r, 4-(1S-Hydroxymethyl-propylamino)-benzenesulfonic acid 2-(cyclopropanecarbonyl-amino)-1H-benzoimidazol-5-yl ester]",
,800,4-Benzylamino-benzenesulfonic acid 2-(cyclopropanecarbonyl-amino)-1H-benzoimidazol-5-yl ester [Example 60-a],
,2000,"COC(=O)Nc1nc2cc(OS(=O)(=O)c3ccc(NCC(C)O)cc3)ccc2[nH]1 (stereo not drawn) [Example 9, Methyl-5-(4-[2-methyl,2-hydroxyethyl]aminophenyl-sulfonyloxy) benzimidazole-2-carbamate]",
,1300,"NCCNCCNc1ccc(S(=O)(=O)Oc2ccc3[nH]c(NC(=O)C4CC4)nc3c2)cc1 [Example 60-ad, 4-[2-(2-Amino-ethylamino)-ethylamino]-benzenesulfonic acid 2-(cyclopropanecarbonyl-amino)-1H-benzoimidazol-5-yl ester]",
55,,"O=C(NCCN1CCOCC1)Nc1nc2cc(OS(=O)(=O)c3ccc(NCC4CCNCC4)cc3)ccc2[nH]1 [Example 78-t, 4-[(Piperidin-4-ylmethyl)-amino)-benzenesulfonic acid 2-[3-(2-morpholin-4-yl-ethyl)-ureido]-1H-benzoimidazol-5-yl ester]",
,2200,"O=C(Nc1nc2cc(OS(=O)(=O)c3ccc(NCCCN4CCCC4=O)cc3)ccc2[nH]1)C1CC1 [Example 60-ae, 4-[3-(2-Oxo-pyrrolidin-1-yl)-propylamino]-benzenesulfonic acid 2-(cyclopropanecarbonyl-amino)-1H-benzoimidazol-5-yl ester]",
50,,"COC(=O)Nc1nc2cc(OS(=O)(=O)c3c(C)noc3C)ccc2[nH]1 [Example 62-a, 3,5-Dimethyl-isoxazole-4-sulfonic acid 2-methoxycarbonylamino-1H-benzoimidazol-5-yl ester]",
,,O=C(NCc1ccccn1)Nc1nc2cc(OS(=O)(=O)c3ccc(NCC4CCNCC4)cc3)ccc2[nH]1 [Example 78-u],inhibition of CDK4/cyclinD1 at 10 μM (at 10 μM): 93% inhibition at 10 μM
14,,"CCCCNc1ccc(S(=O)(=O)Oc2ccc3[nH]c(NC(=O)OC)nc3c2)cc1 [Example 12, Methyl-5-(4-butylaminophenylsulfonyloxy) benzimidazole-2-carbamate]",
,600,"CCOC(=O)CCCNC(=O)Nc1nc2cc(OS(=O)(=O)c3ccc(NC4CCCC4)cc3)ccc2[nH]1 [Example 58-n, 4-{3-[5-(4-Cyclopentylamino-benzenesulfonyloxy)-1H-benzoimidazol-2-yl]-ureido}-butyric acid ethyl ester]",
50,,"COC(=O)Nc1nc2ccc(OS(=O)(=O)c3ccc(OCCN4CCCCC4)cc3)cc2[nH]1 [Example 64-d, 4-(2-piperidin-1-yl-ethoxy)-benzenesulfonic acid 2-methoxycarbonylamino-3H-benzoimidazol-5-yl ester]",
,8000,"CCNCCNc1ccc(S(=O)(=O)Oc2ccc3[nH]c(NC(=O)C4CC4)nc3c2)cc1 [Example 60-s, 4-(2-Ethylamino-ethylamino)-benzenesulfonic acid 2-(cyclopropanecarbonyl-amino)-1H-benzoimidazol-5-yl ester]",
78,,"COCCNC(=O)Nc1nc2cc(OS(=O)(=O)c3ccc(NC(C)CO)cc3)ccc2[nH]1 (stereo not drawn) [Example 78-k, 4-(2-Hydroxy-1-methyl-ethylamino)-benzenesulfonic acid 2-[3-(2-methoxy-ethyl)-ureido]-1H-benzoimidazol-5-yl ester]",

Molecule,inhibition at 10 µM [%],IC50 [nM],also measured
"COC(=O)Nc1nc2cc(OS(=O)(=O)c3ccc(OCC(=O)N4CCN(C)CC4)cc3)ccc2[nH]1 [Example 66-a, 4-[2-(4-Methyl-piperazin-1-yl)-2-oxo-ethoxy]-benzenesulfonic acid 2-methoxycarbonylamino-1H-benzoimidazol-5-yl ester]",19,,
